Results on three compounds are retold here after patent US8629144B2, “Polymorphic and hydrate forms, salts and process for preparing 6-{difluoro[6-(1-methyl-1H-pyrazol-4-yl)[1,2,4]triazolo[4,3-b]pyridazin-3-yl]methyl}quinoline” (Janssen Pharmaceutica NV, priority 2007, dated 2014).

Counter-ions that a name gives are not always drawn.

What is called Solubility is how much of the substance goes into solution per volume. As a reminder, the solubility (thermodynamic) is solubility found after equilibrating the solid with the medium. As usually defined, the AUC(0-t) is the area under the concentration-time curve up to a stated or last time point. The Cmax is the maximum level reached in the sampled fluid or tissue. One may read the Tmax as the time from dosing to the highest level. For orientation: half-life means how long it takes for the measured level to halve. One may read the IC50 as the concentration that gives 50% inhibition.

Data set [1] can be described thus: Stability of the hydrate form in aqueous suspension (XRPD, SEM). Type of data set: physicochemical. To be noted: aqueous suspension 16 mg/ml. As to the method:
Aqueous suspension of the compound of formula (I) 16 mg/ml was stored at about 4° C. up to 9 days. Samples were taken after 1, 2 and 9 days of storage. The suspensions were spread over a paper filter and dried at room temperature for 2 hours. The obtained materials were analysed by XRPD.
Moreover, the hydrate remained stable in the aqueous medium for at least 9 days (XRD not substantially changed).

The nature of data set [2]: Thermal conversions in DSC oven (XRPD). It counts as physicochemical. Here is the method:
Form III or hydrate form were thermally treated in a DSC oven (heating rate 10° C./min) up to selected temperatures (isotherm for 1 min) using an open sample pan. The selected temperatures are for Form III: 110° C. and 170° C.; and for hydrate form: 70° C., 110° C. and 170° C. The polymorphic composition of the obtained fractions was measured by XRPD. Table 12 summarises XRPD patterns in DSC treated Form III. Table 13 summarises XRPD patterns in DSC treated hydrate

Data set [3] can be described thus: Aqueous solubility of Forms I, III and hydrate at different pH. Type of data set: physicochemical. Here is the method: Solubility of polymorph Forms I and III and the hydrate form of the compound of formula (I) was tested in aqueous conditions at different pH values.
The nature of data set [4]: Slurry conversion on mixtures of Form III and Form I (XRPD). It counts as physicochemical. Details: key to Polymorphic composition (XRPD) after slurry: Form I; *: low amount of product. To be noted: overnight. Here is the method:
30 mg of mixture of Form III and Form I and 0.25 ml solvent (2-propanol; or ethanol/water (8/2, v/v)) were placed in a vial. For each solvent, 2 vials were prepared and stored each at different temperatures (RT, 70° C.) overnight. After storage, the slurry was spread on a paper filter, the solid fractions were collected and dried 2 hours at RT. The polymorphic composition was measured using XRPD.

Data set [5] can be described thus: Water adsorption (hygroscopicity) of salts of compound (I). It counts as physicochemical. Here is the method: Free base of compound (I) (3 g; 7.95 mmol) was dissolved in absolute ethanol (40 mL) and heated to 78° C. An acid (HCl 6M in 2-propanol, 2.0 ml (12 mmol); HBr 48% in water, 0.98 mL (8.75 mmol); methane sulphonic acid, 917 mg (9.54 mmol); ethane sulphonic acid, 1.05 g (9.54 mmol) or p-toluene sulphonic acid monohydrate (1.66 g (8.75 mmol)) was added to the hot reaction mixture. The reaction mixture was allowed to cool to room temperature. The resulting precipitate was filtered off, washed with ethanol and dried under vacuum at 60° C.
The obtained solids were analysed by acid titration, Karl-Fisher titration and HPLC. A physical characterisation was performed (DSC, TGA, XRD and IR, DVS).

A short description of data set [6]: Water solubility of salts of compound (I). Type of data set: physicochemical. To be noted: 24 hours at 20° C. Here is the method:
An excess of different salts of compound (I) was agitated with water during 24 hours at 20° C. Following filtration, the concentration of compound (I) in the solution was determined by UV spectrometry.

A short description of data set [7]: Absorption and plasma kinetics after oral administration of salts to rat. To be noted: male, SD, rat, plasma, po.
Experimental: Five male SD rats (225±11 g) were used per salt form. From each rat a complete plasma concentration time profile was obtained. Tap water and food were available ad libitum. The test involved salts of compound (I) with HBr, HCl, methanesulphonic acid (mesylate), ethanesulphonic acid (esylate) or p-toluenesulphonic acid (tosylate). The individual salts were dispersed in a 0.5% methocel suspension to a final concentration of 1 mg base eq./ml. The formulations were stored at room temperature.
Administration was oral by gastric intubation: 10 ml/kg to obtain a dose of 10 mg base eq./kg.
Blood samples were collected 30 min, 1, 2, 4, 7 and 24 h after dose administration.
Blood was collected by multiple sampling from a tail vein into Multivette® 600 K3E tubes (Sarstedt). Samples were placed immediately on melting ice and plasma was obtained following centrifugation at 4° C. for 10 minutes at approximately 1900×g. All samples were shielded from daylight and stored at ≦−18° C. prior to analysis.
A limited pharmacokinetic analysis was performed using WinNonlin™ Professional (Version 5.1). A non-compartmental analysis using the lin/log trapezoidal rule with lin/log interpolation was used for all data.
Another data set deals with T1, c-Met kinase (Homo sapiens, UniProt P08581).
T1 construct: His-6 (N); purchased Panvera Lot 40047X; host or cells: Sf9 insect cells (baculovirus), for the His6-MetKin construct scaled up at Pan Vera
T1 sequence (P08581 956-1390 limits assumed): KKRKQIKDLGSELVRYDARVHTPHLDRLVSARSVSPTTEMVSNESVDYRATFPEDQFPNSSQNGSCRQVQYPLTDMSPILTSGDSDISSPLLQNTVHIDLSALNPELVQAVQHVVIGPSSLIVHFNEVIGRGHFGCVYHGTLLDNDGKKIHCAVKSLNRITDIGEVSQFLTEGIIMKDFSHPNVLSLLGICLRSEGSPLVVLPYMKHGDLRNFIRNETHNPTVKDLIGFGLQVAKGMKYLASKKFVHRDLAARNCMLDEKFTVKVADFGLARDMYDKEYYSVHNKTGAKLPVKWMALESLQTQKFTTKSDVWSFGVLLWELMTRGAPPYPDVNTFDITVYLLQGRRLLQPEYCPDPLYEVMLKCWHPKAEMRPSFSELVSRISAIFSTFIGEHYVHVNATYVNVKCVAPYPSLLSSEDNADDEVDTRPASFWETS
In words: c-Met autophosphorylation assay with radioactive ATP. Type of data set: biochemical. To be noted: [33P]-γ-ATP, 60 min room temperature, read-out: IC50 for c-Met kinase inhibition. As to the method:
The present autophosphorylation assay uses radioactive ATP to measure the incorporation of phosphate upon c-Met autophosphorylation. The assay procedure for screening is as follows.
c-Met enzyme (purchased from Panvera, Lot 40047X, 2.4 mg/ml); “Assay buffer” (13.3 mM MOPS pH 7; 0.33 mM EDTA); “Enzyme buffer” (20 mM MOPS pH 7; 1 mM EDTA; 0.01% Brij 35; 5% glycerol; 0.1% beta mercapto-EtOH); 100 mM MgAc; 3% phosphoric acid; 75 mM phosphoric acid; 1 mM ATP-stock; [^33P]-γ-ATP (NEN, NEG602H); round-bottom 96-well plates (Corning, 3799); Filtermat P30-filters (Perkin Elmer); “Enzyme mix” (698.80 μl of Enzyme buffer as above+1.17 μl of c-Met enzyme as above); “Substrate mix” (946.00 μl of 100 mM MgAc+50.00 μl ATP (0.1 mM)+4.00 μl [^33P]-γ-ATP as above).
• 1. Distribute 15 μl assay buffer per well. • 2. Add 0.5 μl dilution of tested c-Met inhibitor (e.g., compound (I) or its forms or salts) in DMSO. • 3. Add 5 μl Enzyme mix per well (control: Enzyme buffer in blanc). • 4. Add 5 μl Substrate mix per well. • 5. Incubate at room temperature for 60 min. • 6. Stop reaction with 3% phosphoric acid, 5 μl per well • 7. Shake plate • 8. Spot 5 μl from a well to filtermat P30. • 9. […] Expose the filter to phosphor storage cassette overnight on low energy phosphor storage plate, and detect and quantify the signal using a suitable phosphorimager (herein, Typhoon) Results

With `Cn1cc(-c2ccc3nnc(C(F)(F)c4ccc5ncccc5c4)n3n2)cn1` [hydrate, 6-{difluoro[6-(1-methyl-1H-pyrazol-4-yl)[1,2,4]triazolo[4,3-b]pyridazin-3-yl]methyl}quinoline], the “Time hydrate remained stable in the aqueous medium (XRD not substantially changed)” value in data set [1] (about 4° C.) is recorded as “at least 9 days”. For the same compound, the XRPD measured composition result in data set [2] (DSC treated hydrate, up to 70° C.) is listed as “hydrate + Form III”; in data set [2] (DSC treated hydrate, up to 110° C.), “Form III”; in data set [2] (DSC treated hydrate, up to 170° C.) it was “mainly Form I”; in data set [2] (starting hydrate), “hydrate”. In addition, the Solubility is 56 µg/mL in data set [3] (0.01 HCl); 810 µg/mL in data set [3] (0.1 HCl); 65 µg/mL in data set [3] (pH2); 2 µg/mL in data set [3] (pH4); 1 µg/mL in data set [3] (pH6); 1 µg/mL in data set [3] (pH8). In data set [3] (pH10), this compound yielded a Solubility of 1 µg/mL.

As to `Cn1cc(-c2ccc3nnc(C(F)(F)c4ccc5ncccc5c4)n3n2)cn1` [mixture of Form III and Form I], in data set [1] (4° C., 1 day, 2 days and 9 days), the “XRD patterns of the stored suspensions” value was “compatible with those of the hydrate form”. Besides, the “Polymorphic composition (XRPD) after slurry” value in data set [4] (2-propanol, 70° C.) was “I”; in data set [4] (2-propanol, RT) it was “I”; in data set [4] (ethanol/water (8/2, v/v), 70° C., low amount of product), “I*”; in data set [4] (ethanol/water (8/2, v/v), RT), “I”.

`Cn1cc(-c2ccc3nnc(C(F)(F)c4ccc5ncccc5c4)n3n2)cn1` [HCl salt]: the Hygroscopicity result in data set [5] is “hygroscopic”. In addition, the Water adsorbed entry in data set [5] (dried 1 h at 25° C. under dry nitrogen flow, depending on the atmospheric humidity) is “up to 11.4%”. Moreover, the “Measured pH” value in data set [6] (saturated solution in water) was “pH = 1.8”. The solubility (thermodynamic) at 24 h in data set [6] (water, UV spectrometry) is 380 µg/mL. Also, in data set [7] (10 mg base eq./kg), the concentration at 0.5 h came out at 3090 ± 235 ng/mL, the concentration at 1 h is 4210 ± 685 ng/mL, the concentration at 2 h turned out to be 4290 ± 803 ng/mL and the concentration at 4 h stood at 2710 ± 706 ng/mL. In data set [7] (10 mg base eq./kg), the concentration at 7 h was found to be 1940 ± 702 ng/mL and the concentration at 24 h amounted to 56.1 ± 16.6 ng/mL. For the same compound, in data set [7] (10 mg/kg), the AUC0-inf is 29900 ± 7260 ng·h/mL, the area under the curve AUC(0-t) turned out to be 29600 ± 7220 ng·h/mL, the Cmax is 4430 ± 683 ng/mL and the Tmax amounted to 1.6 ± 0.5 h. The half-life in data set [7] (10 mg/kg) is 3.5 ± 0.3 h. In addition, the IC50 at c-Met kinase was roughly 13.2 nM.
